The data set can be described thus: photoluminescence quantum yield (fraction); solvent given as SMILES.

Data on 46 compounds can be found in the Deep4Chem optical property database.

As to `O=C(O)c1cc2c(ccc3ccccc32)oc1=O`, the photoluminescence quantum yield (in C1COCCO1) was found to be 0.53; the photoluminescence quantum yield (in CC#N) was determined as 0.54; the photoluminescence quantum yield (in CCCCO) turned out to be 0.27; the photoluminescence quantum yield (in CCO) was 0.07; the photoluminescence quantum yield (in CO) was 0.1; the photoluminescence quantum yield (in O) worked out at 0.41.

`N#Cc1c(N2CCCCC2)cc(-c2ccc(-c3ccccc3)cc2)c2c1CCc1ccccc1-2` yielded a photoluminescence quantum yield (in C1CCOC1) of 0.38.

On to `c1cc2ccc3cccc4c(-c5cc(-c6nccs6)nc(-c6nccs6)c5)cc(c1)c2c34`, for which the photoluminescence quantum yield by setting is: (in CC#N) 0.645; (in CCCCCC) 0.51; (in CO) 0.214; (in ClC(Cl)Cl) 0.627.

Compound `C(=C\c1cc[n+](Cc2ccccc2)cc1)/c1cc[n+](Cc2ccccc2)cc1` had a photoluminescence quantum yield (in CC#N) of 0.0006.

For the compound `c1ccc(-c2nc(-c3ccccc3)nc(-c3ccc(N4c5ccccc5C5(c6ccccc6-c6ccccc65)c5ccccc54)cc3)n2)cc1`, the photoluminescence quantum yield (in O=P(c1ccccc1)(c1ccccc1)c1ccccc1Oc1ccccc1P(=O)(c1ccccc1)c1ccccc1) is 0.801.

Turning to `Cc1cccc2ccccc12`, under “in C1CCCCC1”, the photoluminescence quantum yield was 0.4.

On to `COc1ccc2c3c(c4ccc(OC)cc4c2c1)=[N+]1C(=C(c2c(C)cc(C)cc2C)c2cc4c5ccc(OC)cc5c5cc(OC)ccc5c4n2[B-]1(F)F)C=3`, for which the photoluminescence quantum yield was 0.63 (in C1CCCCC1); 0.5 (in C1CCOC1); 0.33 (in CC#N); 0.54 (in Cc1ccccc1); 0.53 (in ClCCl).

Consider `O=c1ccc2cc3c(cc2o1)OCC3`, for which the photoluminescence quantum yield is, setting by setting: (in CC(C)O) 0.23; (in CCO) 0.23; (in CCOCC) 0.06; (in CO) 0.3; (in O) 0.83.

For `CN(C)c1ccc(/C=C/c2cc(/C=C/c3ccc(N(C)C)cc3)nc(/C=C/c3ccc(N(c4ccccc4)c4ccccc4)cc3)n2)cc1`, for the setting “in ClCCl”, the photoluminescence quantum yield was determined as 0.59.

The compound `Cc1ccc(CN2/C(=C/C=C3\CCCC(/C=C/C4=[N+](Cc5ccc(C)cc5)c5ccccc5C4(C)C)=C3Cl)C(C)(C)c3ccccc32)cc1` yielded a photoluminescence quantum yield (in CCO) of 0.132.

Consider `CCCCN(CCCC)c1ccc2c#cc3cc4c#cc5ccc(C(F)(F)F)cc5c#cc#cc5cc(N(CCCC)CCCC)ccc5c#cc4cc3c#cc3ccc(C(F)(F)F)cc3c#cc#cc2c1`, for which the photoluminescence quantum yield (in ClCCl) turned out to be 0.33.

Under “in ClC(Cl)Cl”, `F[B-]1(F)n2c(c(-c3ccccc3)c3c2C2=Cc4ccccc4OC2CC3)C=C2C(c3ccccc3)=C3CCC4Oc5ccccc5C=C4C3=[N+]21` (centres undefined) returned a photoluminescence quantum yield of 0.06.

In turn, `CC1=CC(C)=[N+]2C1=C(c1ccc(I)cc1)c1c(C)cc(C)n1[B-]21Oc2ccc3ccccc3c2-c2c(ccc3ccccc23)O1` registered a photoluminescence quantum yield (in ClC(Cl)Cl) of 0.002.

For the compound `Cc1ccc2nc(-c3cccc4nc(C)[nH]c(=O)c34)oc2c1`, the photoluminescence quantum yield (in CN(C)C=O) was 0.076.

Under “in CC#N”, `c1cc2c3c(cccc3c1)C(N1CCOCCOCCOCCOCC1)=N2` registered a photoluminescence quantum yield of 0.004.

In turn, `COC(=O)c1nc2c(N(C)C)nc(N(C)C)nc2n1Cc1ccccc1` had a photoluminescence quantum yield (in C1COCCO1) of 0.95, a photoluminescence quantum yield (in CC#N) of 0.86, a photoluminescence quantum yield (in CO) of 0.66 and a photoluminescence quantum yield (in ClCCl) of 0.9.

For the setting “in Cc1ccccc1”, `C(#Cc1ccc2ncsc2c1)c1ccc(N(c2ccc(C#Cc3ccc4ncsc4c3)cc2)c2ccc(C#Cc3ccc4ncsc4c3)cc2)cc1` showed a photoluminescence quantum yield of 0.53.

`COc1ccc(C2=[N+]3C(=Nc4c(-c5ccccc5)c5c(n4[B-]3(F)F)-c3ccc(OC)cc3CC5)C(c3ccccc3)=C2)cc1`: the photoluminescence quantum yield (in ClC(Cl)Cl) is 0.38.

In the case of `CC1=[N+]2C(=Cc3c4c(cn3[B-]2(F)F)-c2nc-4c(-c3ccccc3)c3ccc([nH]3)c(-c3ccccc3)c3nc(c(-c4ccccc4)c4ccc([nH]4)c2-c2ccccc2)C=C3)C(C)C1` (centres undefined), the photoluminescence quantum yield (in ClCCl) was 0.04.

With `CN(C)c1ccc2c(-c3cc(N)ccc3C(=O)[O-])c3ccc(=[N+](C)C)cc-3oc2c1`, the photoluminescence quantum yield was 0.016 (in CCO) and 0.022 (in O).

Take `CCCCOc1ccc(-c2oc3cc4n(c3c2-c2ccc(OCCCC)cc2)[B-](F)(F)[N+]2=Cc3cc5oc(-c6ccc(OCCCC)cc6)c(-c6ccc(OCCCC)cc6)c5n3[B-](F)(F)[N+]2=C4)cc1`: the photoluminescence quantum yield (in C1CCOC1) came out at 0.44; the photoluminescence quantum yield (in CN(C)C=O) was 0.32; the photoluminescence quantum yield (in CS(C)=O) was found to be 0.31; the photoluminescence quantum yield (in Cc1ccccc1) was 0.42; the photoluminescence quantum yield (in ClC(Cl)Cl) came to 0.43; the photoluminescence quantum yield (in ClCCl) stood at 0.43.

Regarding `CCCCCCCCC1(CCCCCCCC)c2cc3c(cc2-c2sc(-c4ccc(/C=C5\SC(=S)N(CC)C5=O)c5nsnc45)cc21)C(CCCCCCCC)(CCCCCCCC)c1cc(-c2ccc(/C=C4\SC(=S)N(CC)C4=O)c4nsnc24)sc1-3`, the photoluminescence quantum yield runs as follows: (in C1CCOC1) 0.029; (in ClC(Cl)Cl) 0.04.

Turning to `Cc1ccc(C)n1-c1ccccc1`, the photoluminescence quantum yield runs as follows: (in CC#N) 0.012; (in CCCCCC) 0.005.

Take `Cc1ccc(-c2ccc(C(=O)NC(C)(C)C)c3c2ccc2c4ccccc4c4ccccc4c23)cc1`: the photoluminescence quantum yield (in ClCCl) came to 0.07.

`COc1ccc(-c2cc(B(c3c(C)cc(C)cc3C)c3c(C)cc(C)cc3C)c(-c3sc(-c4ccc(OC)cc4)cc3P(=O)(c3ccccc3)c3ccccc3)s2)cc1` registered a photoluminescence quantum yield (in CO) of 0.55.

In turn, `COc1cc2c(cc1/C=C/C(=C(C#N)C#N)c1ccccc1)c1ccccc1n2C` returned a photoluminescence quantum yield (in C1CCOC1) of 0.008; a photoluminescence quantum yield (in CC#N) of 0.014; a photoluminescence quantum yield (in CCO) of 0.012; a photoluminescence quantum yield (in CCOC(C)=O) of 0.009; a photoluminescence quantum yield (in CN(C)C=O) of 0.022; a photoluminescence quantum yield (in CO) of 0.012. The photoluminescence quantum yield came out at 0.033 (in CS(C)=O), 0.007 (in Cc1ccccc1), 0.018 (in ClC(Cl)Cl) and 0.022 (in ClCCl).

Regarding `COc1c2ccccc2c(OC)c2c1c1ccc(F)cc1n2C`, the photoluminescence quantum yield by setting is: (in C1CCCCC1) 0.36; (in CC#N) 0.27; (in CO) 0.34; (in ClCCl) 0.45.

With `CCOC(=O)c1cc(C(=O)OCC)c2c(C)ccc(O)c2n1`, the photoluminescence quantum yield (in CCO) stood at 0.26.

For `CC1=C2C=CC(C)=[N+]2[B-](F)(F)n2cccc21`, the photoluminescence quantum yield amounted to 0.96 (in CCCCCC), 1 (in CO) and 0.89 (in ClCCl).

For the setting “in ClCCl”, `[O-][n+]1c(/C=C/C=C/c2ccccc2)nc(N2CCOCC2)c2c1CCCC2` returned a photoluminescence quantum yield of 0.06.

For `N#Cc1c(-n2c3ccccc3c3ccccc32)c(F)c(-n2c3ccccc3c3ccccc32)c(F)c1-n1c2ccccc2c2ccccc21`, the photoluminescence quantum yield is, setting by setting: (in Cc1ccccc1) 0.76; (in c1ccc([Si](c2ccccc2)(c2ccc(-n3c4ccccc4c4ccccc43)cc2)c2ccc(-n3c4ccccc4c4ccccc43)cc2)cc1) 0.74.

As to `CN(C)C1=Nc2cccc3cccc1c23`, under “in CC#N”, the photoluminescence quantum yield is 0.0066.

For the setting “in Cc1ccccc1”, `c1ccc(-c2nnc(-c3ccc(N4c5ccccc5Oc5ccccc54)cc3)n2-c2ccccc2)cc1` registered a photoluminescence quantum yield of 0.127.

`CCn1c2ccccc2c2ccc(-c3ccc(OC)cc3)cc21`: the photoluminescence quantum yield (in C1CCCCC1) was found to be 0.22.

Regarding `CC(C)(C)c1ccc2c(c1)sc1[n+]2[B-](F)(F)n2c(c3cccc4c(Br)ccc2c43)=N1`, the photoluminescence quantum yield by setting is: (in C1CCOC1) 0.63; (in CC#N) 0.64; (in CCCCCC) 0.68; (in Cc1ccccc1) 0.64; (in ClCCl) 0.72.

Compound `Cc1ccc(-c2c3ccc([nH]3)c3nc(c(-c4ccc([N+](=O)[O-])cc4)c4ccc([nH]4)c4ccc([nH]4)c(-c4ccc(C)cc4)c4ccc2o4)C=C3)cc1` yielded a photoluminescence quantum yield (in C1CCOC1) of 0.018, a photoluminescence quantum yield (in Cc1ccccc1) of 0.083 and a photoluminescence quantum yield (in c1ccccc1) of 0.098.

On to `c1ccc(-n2c3c(c4c2-c2ccccc2C42c4ccccc4-c4ccccc42)C2(c4ccccc4-c4ccccc42)c2ccccc2-3)cc1`, for which the photoluminescence quantum yield (in C1CCOC1) came out at 0.37.

On to `Cc1ccc2ccccc2c1`, for which the photoluminescence quantum yield (in C1CCCCC1) is 0.52.

Take `FC(F)(F)c1ccc(C2=CC3=c4cc(-c5ccc(C(F)(F)F)cc5)c5nc(C(F)(F)C(F)(F)C(F)(F)F)nc6c(-c7ccc(C(F)(F)F)cc7)cc(c4c65)C4=CC(c5ccc(C(F)(F)F)cc5)=C5N=C(C(F)(F)C(F)(F)C(F)(F)F)N=C2C5C43)cc1` (centres undefined): the photoluminescence quantum yield (in C1CCOC1) was found to be 0.96.

Regarding `CCCCC1(CCCC)c2cc(C#Cc3ccc(C=C4c5ccccc5CCc5ccccc54)cc3)ccc2-c2ccc(C#Cc3ccc(C=C4c5ccccc5CCc5ccccc54)cc3)cc21`, for the setting “in C1CCOC1”, the photoluminescence quantum yield amounted to 0.027.

The compound `CCCCCCn1c2ccccc2c2cc(-c3ccc(-c4cc(-c5ccccn5)nc(-c5ccccn5)c4)cc3)ccc21` had a photoluminescence quantum yield (in ClCCl) of 0.73.

`CCOC(=O)C1=C(C(=O)OCC)C2(c3cc(Cl)ccc3-c3ccc(Cl)cc32)C2(/C=C/c3ccccc3)c3cc(OC)c(OC)cc3CCN12` (centres undefined) gave a photoluminescence quantum yield (in ClCCl) of 0.00196.

In the case of `C(=C\c1ncnc2ccccc12)/c1ccc(N2CCCCC2)cc1`, the photoluminescence quantum yield (in ClCCl) came out at 0.12.

On to `CC(C)[Si](C#Cc1c2ccccc2c(C#C[Si](C(C)C)(C(C)C)C(C)C)c2nc3c(nc12)Cc1ccccc1-3)(C(C)C)C(C)C`, for which the photoluminescence quantum yield (in CCCCCC) stood at 0.47.

On to `CN(C)c1ccc(C2=Nc3sc4cc(C(F)(F)F)ccc4[n+]3[B-](F)(F)O2)cc1`, for which the photoluminescence quantum yield amounted to 0.61 (in C1CCOC1); 0.05 (in CC#N); 0.13 (in CC(C)=O); 0.93 (in Cc1ccccc1); 1 (in ClCCl).

In turn, `F[Si](c1ccccc1)(c1ccccc1)c1c2ccccc2cc2ccccc12` registered a photoluminescence quantum yield (in C1CCOC1) of 0.86 and a photoluminescence quantum yield (in ClC(Cl)Cl) of 0.52.
